{"source": "patent US5721356A", "about": "“Orally active adenosine kinase inhibitors” (Gensia, Inc., priority 1995, dated 1998)", "key": {"[1]": {"system": "isolated guinea pig hearts", "conditions": "cited from earlier work"}, "rat cardiomyocytes": {"system": "rat cardiomyocytes", "conditions": "cited from earlier work"}, "anesthetized rats": {"system": "anesthetized rats", "conditions": "cited from earlier work"}, "[2]": {"system": "rat and guinea pig brain slices", "conditions": "cited from earlier work"}, "mice [3]": {"system": "mice", "conditions": "cited from earlier work"}, "mice [4]": {"system": "mice", "conditions": "interpreted as skeletal muscle relaxation; cited from earlier work"}, "male SA rats [5]": {"system": "male SA rats", "test": "Analgesic activity, hot plate model", "format": "in vivo", "conditions": "Rattus norvegicus, po", "from_the_text": "(§1) Ther., 250:3, 915-922 (1989). See also, Life Sciences 51:171-76 (1992). These models measure pain avoidance and tolerance in response to a regulated stimulus, and compare the response of animals before and after they are given test compound."}, "[6]": {"system": "carrageenan-induced paw swelling in rats", "test": "Anti-inflammatory activity, carrageenan paw swelling", "format": "in vivo, rat", "conditions": "po, 10 mg/kg, paw swelling 3 hours after carrageenan, vs vehicle", "method": "Carrageenan (Type λ) was suspended in sterile PBS at 1% (w/v), autoclaved for 30 minutes, and stored at room temperature. Rats were pretreated with vehicle or AK inhibitor (10 mg/kg) by oral gavage or i.p. administration and the volume of the left hind paw was measured using a water displacement plethysmometer (Stoelting Co., Wood Dale, Ill.). One hour after oral treatment or 30 minutes after i.p. treatment, the rats were briefly anesthetized, and 0.1 ml of the carrageenan solution was injected subcutaneously into the planar surface of the left hind paw. The ensuing paw swelling was measured by plethysmometry after 3 hours. The paw volume in millileters was subtracted from the pre-injection paw volume. Data are presented as the percent inhibition of paw swelling in AK inhibitor treated animals, compared to vehicle treated control animals."}, "male SA rats [7]": {"system": "male SA rats", "test": "Anticonvulsant activity, maximal electroshock (MES) model, suppression of hind limb tonic extension", "format": "in vivo", "conditions": "Rattus norvegicus, 1 h, one hour before seizure testing"}, "[8]": {"target": "T1, partially purified pig heart adenosine kinase (Sus scrofa, UniProt A0A5G2R0F5)", "T1 construct": "partially purified pig heart adenosine kinase; from tissue; host or cells: pig heart", "T1 sequence (A0A5G2R0F5 1-362)": "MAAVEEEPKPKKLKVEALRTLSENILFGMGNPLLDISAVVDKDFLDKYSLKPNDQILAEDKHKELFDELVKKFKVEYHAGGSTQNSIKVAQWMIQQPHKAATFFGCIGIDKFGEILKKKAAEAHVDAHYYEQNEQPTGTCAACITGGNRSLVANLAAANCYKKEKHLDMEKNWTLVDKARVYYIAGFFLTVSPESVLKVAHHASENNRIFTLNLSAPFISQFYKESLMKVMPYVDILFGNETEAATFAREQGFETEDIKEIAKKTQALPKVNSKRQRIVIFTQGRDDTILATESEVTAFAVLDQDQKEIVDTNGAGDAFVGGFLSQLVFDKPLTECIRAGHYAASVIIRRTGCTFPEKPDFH", "test": "Adenosine kinase (AK) inhibition", "format": "biochemical", "method": "Adenosine kinase activity was measured essentially as described by Yamada et al. Biochim. Biophys. Acta 660, 36-43 […] with a few minor modifications. Assay mixtures contained 50 mM TRIS-maleate buffer, pH 7.0, 0.1% BSA, 1 mM ATP 1 mM MgCl2, 0.5 μM [U-^14 C]adenosine (400-600 mCi/mmol) and varying duplicate concentrations of inhibitor. The reactions were initiated by addition of approximately 0.1 μU partially purified pig heart adenosine kinase, where one unit is defined as that amount of enzyme required to phosphorylate 1 μmol adenosine per minute. The reactions were incubated for 20 minutes at 37° C. The assay was quenched upon spotting 30 μL aliquots onto 2 cm^2 pieces of Whatman DE81 anion exchange paper. The paper squares were washed for 3 minutes in 6 L distilled/deionized water to remove the unreacted adenosine. […] The amount of ^14 C-AMP was quantified by scintillation counting."}, "male SA rats [9]": {"system": "male SA rats", "test": "Analgesic activity, tail flick model", "format": "in vivo", "conditions": "Rattus norvegicus, po", "from_the_text": "as §1"}, "[10]": {"test": "Oral bioavailability in dogs (oral vs intravenous AUC)", "format": "in vivo, dog (female beagles)", "conditions": "dog, plasma, 10 mg/kg, read-out: % Oral Availability", "method": "Oral bioavailability was determined by comparing the dose corrected areas under the plasma-concentration time curve (AUC) to infinity for the each tested compound, given orally and intravenously in dogs. […] One dog received this solution at an infusion rate of 0.1 mL/min for 20 minutes. The other dog received a 0.2 mL/in infusion for 10 minutes. […] The plasma was separated within 10 minutes of blood collection and was stored frozen. The plasma concentration of compound was then determined for these IV infusions. […] The plasma concentration of compound was determined for this oral administration. The samples were assayed for intact adenosine kinase inhibitor by high performance liquid chromatography (HPLC). An internal standard was added to each test sample and standard sample. Each was then extracted with 10 volumes of 1% v/v dimethylsulfoxide in acetonitrile. […] The dried residue was reconstituted in mobile phase and the contents were analyzed for the adenosine kinase inhibitor (AKI) on HPLC. […] Pharmacokinetic parameters were calculated from the plasma concentration vs. time data, using standard non-compartmental methods. […] et al., Pharmacokinetics., 2[…]. (1983)."}, "isolated rat hearts": {"system": "isolated rat hearts", "conditions": "perfused with 5-iodotubercidin alone, cited from earlier work"}, "ischemic cerebral injury": {"system": "ischemic cerebral injury", "conditions": "Phillis et al.; cited from earlier work"}, "dog hearts": {"system": "dog hearts", "conditions": "cited from earlier work"}, "[11]": {"conditions": "po, fasted, read-out: Anticonvulsant ED50 (MES), po"}}, "note": "Read-outs that look alike come from different tables or passages of the source."}
{"smiles": "NC[C@H]1O[C@@H](n2cnc3c(N)ncnc32)[C@H](O)[C@@H]1O", "note": "[5'-amino-5'-deoxyadenosine]", "values": [{"measurement": "adenosine release effects without ADA inhibition", "setting": "[1]; absence of ADA inhibition", "value": "not apparent in the absence of ADA inhibition"}, {"measurement": "increase of adenosine release", "setting": "[1]; perfusion medium, in the presence of EHNA", "value": 15, "unit": "fold"}, {"measurement": "increase in adenosine release", "setting": "rat cardiomyocytes; inhibition of ADA together with adenosine kinase", "value": 6, "unit": "fold"}]}
{"smiles": "C[C@H]1O[C@@H](n2cc(I)c3c(N)ncnc32)[C@H](O)[C@@H]1O", "note": "[5'-deoxy-5-iodotubercidin]", "values": [{"measurement": "blood pressure and heart rate", "setting": "anesthetized rats", "value": "decrease blood pressure and heart rate in anesthetized rats"}, {"measurement": "adenosine uptake", "setting": "[2]", "value": "adenosine uptake was reportedly inhibited"}, {"measurement": "hypothermia", "setting": "mice [3]", "value": "hypothermia in mice"}, {"measurement": "flaccidity and spontaneous locomotor activity", "setting": "mice [4]", "value": "pronounced general flaccidity and much-reduced spontaneous locomotor activity in mice"}]}
{"smiles": "C[C@H]1O[C@@H](n2cc(-c3ccccc3)c3c(Nc4ccc(F)cc4)ncnc32)[C@H](O)[C@@H]1O", "note": "[#1, 4-N-(4-fluorophenyl)amino-5-phenyl-7-(5-deoxy-1-β-D-ribofuranosyl)pyrrolo(2,3-d)pyrimidine]", "values": [{"measurement": "ED50", "setting": "male SA rats [5]", "value": 16.9, "unit": "mg/kg"}, {"measurement": "Carrageenan Paw (% inh)", "setting": "[6]", "value": 0.2, "unit": "%"}, {"measurement": "ED50", "setting": "male SA rats [7]; ip, >5 or <5 = fewer or more than 50% inhibited in initial screen at 5 mg/kg ip, read-out: Anticonvulsant ED50 (MES), ip", "value": 1.9, "unit": "mg/kg"}, {"measurement": "ED50", "setting": "male SA rats [7]; [11]", "value": 5.1, "unit": "mg/kg"}, {"measurement": "IC50", "setting": "[8]", "value": 11, "unit": "nM"}, {"measurement": "ED50", "setting": "male SA rats [9]", "value": "< 10", "unit": "mg/kg"}]}
{"smiles": "OC[C@H]1O[C@@H](n2cnc3c2NC=NC[C@H]3O)C[C@@H]1O", "note": "[2'-deoxycoformycin]", "values": [{"measurement": "effect on adenosine release", "setting": "rat cardiomyocytes; inhibition of adenosine deaminase alone", "value": "no effect on adenosine release from the cells"}]}
{"smiles": "C[C@H]1O[C@@H](n2cc(-c3ccccc3)c3c(Nc4ccc(C#N)cc4)ncnc32)[C@H](O)[C@@H]1O", "note": "[#21, 4-N-(4-cyanophenyl)amino-5-phenyl-7-(5-deoxy-1-β-D-ribofuranosyl)pyrrolo[2,3-d]pyrimidine]", "values": [{"measurement": "bioavailability", "setting": "[10]", "value": 23, "unit": "%"}, {"measurement": "ED50", "setting": "male SA rats [7]; [11]", "value": "> 20", "unit": "mg/kg"}, {"measurement": "IC50", "setting": "[8]", "value": 14, "unit": "nM"}]}
{"smiles": "Nc1ncnc2c1c(I)cn2[C@@H]1O[C@H](CO)[C@@H](O)[C@H]1O", "note": "[5-iodotubercidin]", "values": [{"measurement": "perfusate adenosine concentration", "setting": "isolated rat hearts; hypoxic, anoxic or ischemic conditions", "value": "no increase in perfusate adenosine concentration"}, {"measurement": "perfusate adenosine concentration", "setting": "isolated rat hearts; normoxic conditions", "value": "no increase in perfusate adenosine concentration"}, {"measurement": "protection against ischemic cerebral injury", "setting": "ischemic cerebral injury", "value": "does not protect against ischemic cerebral injury"}, {"measurement": "effects in ischemia and reperfusion model", "setting": "dog hearts", "value": "inconsistent effects"}, {"measurement": "blood pressure and heart rate", "setting": "anesthetized rats", "value": "decrease blood pressure and heart rate in anesthetized rats"}, {"measurement": "adenosine uptake", "setting": "[2]", "value": "adenosine uptake was reportedly inhibited"}, {"measurement": "hypothermia", "setting": "mice [3]", "value": "hypothermia in mice"}, {"measurement": "flaccidity and spontaneous locomotor activity", "setting": "mice [4]", "value": "pronounced general flaccidity and much-reduced spontaneous locomotor activity in mice"}]}
